What all share (assay type): cell-based
Assay [1] has as its system Staphylococcus aureus biofilm formation. The assay can be described thus: Minimum Biofilm Inhibition Concentration (MBIC) assay, crystal violet biofilm mass. The note with it: for S. aureus MBIC: % of Ajoene positive control IC50: IC50 relative to ajoene run in the same experiment, <100% = more effective than ajoene. On the procedure:
(§1) Compounds were assayed for their ability to inhibit S. aureus or P. aeruginosa biofilm formation as follows. All compounds were prepared as a 30 mM stock in DMSO and diluted in TSB to 48 μM (S. aureus) or 144 μM (P. aeruginosa). The compounds were further serially diluted two-fold from 48 μM to 0.75 μM (S. aureus) or 144 μM to 2.3 μM (P. aeruginosa) and added to a 96-well plate at 100 μl per well. Overnight cultures of bacteria were diluted to an OD600=0.07 in fresh TSB and 100 μl of the diluted bacterial culture was added to the compound containing wells. The bacteria were incubated in the presence of the compounds overnight at 37° C. After incubation, the planktonic bacteria were removed by three washes using H2O and the remaining biofilm was stained using crystal violet and quantified photometrically at A570. Absorbances corresponding to biofilm mass were plotted versus compound concentration and IC50 values were calculated. Reference: O'Toole GA. Microtiter Dish Biofilm Formation Assay. J. Vis. Exp. (2011).
(§2) MBIC assays of the compounds are carried out alongside ajoene for reference and standardization. The 1050 of ajoene against S. aureus and P. aeruginosa is well-defined and reproducible allowing ajoene to serve as an effective control for the experiment. As such, the 1050 calculated for the tested compounds are compared to the 1050 of ajoene in every experiment and are therefore represented as % of ajoene.
(§3) The compound and the other biofilm inhibitory agents were assayed for their inhibitory activity using the MBIC method as described in Example 4. Absorbances corresponding to biofilm mass were plotted versus concentration of compound and other biofilm inhibitory agents.

Assay [2] relates to Pseudomonas aeruginosa biofilm formation. The description is as above. To be noted: for P. aeruginosa MBIC: % of Ajoene positive control IC50: IC50 relative to ajoene run in the same experiment, <100% = more effective than ajoene. How it is done: as §1, §2, §3
The next assay concerns HaCaT cells. Briefly: Scratch closure test. The note with it: 5 μM, HaCaT monolayer; for scratch closure observed at 20 h: in line with EGF positive control; for scratch closure compared to vehicle control: P<0.0001 vs 1% DMSO vehicle. On the procedure:
HaCaT cells (aneuploidy immortal keratinocyte cell line) were seeded in a 96-well plate at a cell density of 5×10^4 cells per well and incubated overnight at 37° C., 5% CO2 and 95% humidity. Test and control compounds were prepared in 1% DMSO and diluted to a concentration of 5 μM in pre-warmed HaCaT cell media. Cells were washed with pre-warmed PBS and the monolayers mechanically injured by introducing a vertical cell-free area in each individual well, and washed again. Test and control compounds were added and all wells microscopically imaged for time point 0. Cells were incubated as described above and imaged after 20 hours. All conditions were tested with an N of 4 replicates. Scratch closure was analysed using ImageJ software and standard deviation calculated. Scratch closure area reduction was plotted using GraphPrism 8 software.

Regarding `C=CCSSC=CCS(=O)(=O)Cc1ccc(OC)cc1`, the “S. aureus MBIC: % of Ajoene positive control IC50” value (shortened to “S. aureus MBIC: %”) in assay [1] was 4 % of Ajoene. Moreover, the “P. aeruginosa MBIC: % of Ajoene positive control IC50” value (from here on “P. aeruginosa MBIC: %”) in assay [2] is 87 % of Ajoene.
For the compound `C=CCSSC=CCS(=O)(=O)Cc1ccc(S(C)(=O)=O)cc1`, the “S. aureus MBIC: %” value in assay [1] is listed as 23 % of Ajoene. Besides, in assay [2], the “P. aeruginosa MBIC: %” value was 82 % of Ajoene.
The corresponding values for `C=CCSSC=CCS(=O)(=O)Cc1ccc(F)cc1` are 7 % of Ajoene and 49.2 % of Ajoene.
Consider `COc1ccc(CSSC=CCS(=O)(=O)Cc2ccccc2)cc1`, for which the “S. aureus MBIC: %” value in assay [1] was 75 % of Ajoene. Also, in assay [2], the “P. aeruginosa MBIC: %” value is on record as 56 % of Ajoene.
On to `COc1ccc(CSS/C=C/CS(=O)(=O)Cc2ccc(C(F)(F)F)cc2)cc1`, for which the “S. aureus MBIC: %” value in assay [1] is on record as 8.2 % of Ajoene. Besides, the “P. aeruginosa MBIC: %” value in assay [2] is listed as 27.8 % of Ajoene.
Consider `COC(=O)c1ccc(CSS/C=C/CS(=O)(=O)Cc2ccc(C(F)(F)F)cc2)cc1`, for which, in assay [1], the “S. aureus MBIC: %” value is listed as 20.5 % of Ajoene. In addition, the “P. aeruginosa MBIC: %” value in assay [2] was 34.7 % of Ajoene.
On to `C=CCSS/C=C/CS(=O)(=O)Cc1ccc(C(F)(F)F)cc1`, for which the “S. aureus MBIC: %” value in assay [1] is on record as 55.5 % of Ajoene. The “P. aeruginosa MBIC: %” value in assay [2] was 78.7 % of Ajoene.
As to `COc1ccccc1CSSC=CCS(=O)(=O)Cc1ccc(C(F)(F)F)cc1`, the “S. aureus MBIC: %” value in assay [1] is reported as 51 % of Ajoene. Also, the “P. aeruginosa MBIC: %” value in assay [2] was 13.9 % of Ajoene.
In the same order, the values of `COc1cccc(CSSC=CCS(=O)(=O)Cc2ccc(C(F)(F)F)cc2)c1` are 20 % of Ajoene and 65.3 % of Ajoene.
For `COc1ccc(CSSC=CCS(=O)(=O)Cc2ccc(C(F)(F)F)cc2)cc1`, in assay [1], the “S. aureus MBIC: %” value is reported as 24 % of Ajoene. Further, the “P. aeruginosa MBIC: %” value in assay [2] is 79 % of Ajoene.
Turning to `O=S(=O)(CC=CSSCC1CC1)CC1CC1`, the “S. aureus MBIC: %” value in assay [1] is listed as 69.18 % of Ajoene. The “P. aeruginosa MBIC: %” value in assay [2] is given as 57.5 % of Ajoene.
As for `C=CCSSC=CCS(=O)(=O)Cc1ccco1`, the “S. aureus MBIC: %” value in assay [1] is 21.9 % of Ajoene. The “P. aeruginosa MBIC: %” value in assay [2] is given as 11.7 % of Ajoene.
On to `C=CCSSC=CCS(=O)(=O)Cc1cccs1`, for which, in assay [1], the “S. aureus MBIC: %” value is given as 52 % of Ajoene. The “P. aeruginosa MBIC: %” value in assay [2] is reported as 29.7 % of Ajoene.
Take `C=CCSS/C=C/C[S+]([O-])CC=C` (stereo not shown) [E-ajoene]: in the assay on HaCaT cells, the “scratch closure observed at 20 h” value is on record as “complete scratch closure” and the “scratch closure compared to vehicle control” value is on record as “enhanced scratch closure”.
With `COc1ccc(CSS/C=C\CS(=O)(=O)Cc2ccc(C(F)(F)F)cc2)cc1` [Test compound 3], in the assay with HaCaT cells, the “scratch closure observed at 20 h” value is reported as “complete scratch closure” and the “scratch closure compared to vehicle control” value is reported as “enhanced scratch closure”.
In the case of `O=S(=O)(CC=CSSCc1ccc(C(F)(F)F)cc1)Cc1ccc(C(F)(F)F)cc1` [drawing 50], the “S. aureus MBIC: %” value in assay [1] is listed as 28.6 % of Ajoene. For the same compound, in assay [2], the “P. aeruginosa MBIC: %” value is reported as 45.3 % of Ajoene.
The corresponding values for `C=CCSSC=CCS(=O)(=O)Cc1ccc(C(F)(F)F)cc1` [drawing 51] are 38.6 % of Ajoene and 42.75 % of Ajoene.
With `C[S+]([O-])CCCCN=C=S` (stereo not shown) [sulforaphane], in the assay on HaCaT cells, the “scratch closure observed at 20 h” value was “complete scratch closure” and the “scratch closure compared to vehicle control” value was “enhanced scratch closure”.
Regarding `O=S(=O)(CC=CSSCc1ccc(C(F)(F)F)cc1)Cc1ccc(C(F)(F)F)cc1` [test compound 1, 1-(trifluoromethyl)-4-{[(3-{[4-(trifluoromethyl)phenyl]methanesulfonyl}prop-1-en-1-yl)disulfanyl]methyl}benzene], in assay [1] (Example 4, FIG. 1, 48 μM to 0.75 μM, overnight 37° C.), the “IC50 against Staphylococcus aureus biofilm compared to ajoene” value is “lower 1050 than ajoene”. The “IC50 against Pseudomonas aeruginosa biofilm compared to ajoene” value in assay [2] (Example 4, FIG. 2, 144 μM to 2.3 μM, overnight 37° C.) is “lower 1050 than ajoene”.
Consider `C=CCSSC=CCS(=O)(=O)Cc1ccc(C(F)(F)F)cc1` [test compound 2, 1-{[-3-(prop-2-en-1-yldisulfanyl)prop-2-ene-1-sulfonyl]methyl}-4-(trifluoromethyl)benzene], for which the “inhibitory activity on S. aureus biofilm compared to ajoene, cysteamine, gallium nitrate, HDMF, and C-30” value in assay [1] (Example 6, FIG. 4) is reported as “improved inhibitory activity”. In addition, the “inhibitory activity on P. aeruginosa biofilm compared to ajoene, cysteamine, gallium nitrate, HDMF, and C-30” value in assay [2] (Example 6, FIG. 3) was “improved inhibitory activity”.

For the origin of these results see patent publication US12312301B2, “Organosulfur compounds” (MARIPOSA THERAPEUTICS LTD., priority 2018, dated 2025).
